Measured values as given in ChEMBL document CHEMBL1201862, “PubChem BioAssay data set” (2004).
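Compound exposure: 48 hours, 5 concentrations, 96-well plates. Here, GI50 denotes the concentration required for 50% inhibition of growth.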 Activity calls are given as the source filed them. Rule as the data show it: active = GI50 up to about 1.1 µM and inactive = higher.

How the values were obtained:
Assay in all cases: NCI tumour cell line growth inhibition, 48 h
NCI-H226 = system: NCI-H226
SNB-75 = system: SNB-75
Malme-3M = system: Malme-3M
T47D = system: T47D
ACHN = system: ACHN
TK-10 = system: TK-10
KM12 = system: KM12
786-0 = system: 786-0
UO-31 = system: UO-31
HOP-62 = system: HOP-62
SN12C = system: SN12C
UACC-62 = system: UACC-62
LOX IMVI = system: LOX IMVI
NCI-H522 = system: NCI-H522
UACC-257 = system: UACC-257
OVCAR-5 = system: OVCAR-5
DU-145 = system: DU-145
SK-MEL-5 = system: SK-MEL-5
RPMI-8226 = system: RPMI-8226
U-251 = system: U-251
IGROV-1 = system: IGROV-1
COLO 205 = system: COLO 205
NCI/ADR-RES = system: NCI/ADR-RES
MOLT-4 = system: MOLT-4
SK-MEL-2 = system: SK-MEL-2
MCF7 = system: MCF7
CAKI-1 = system: CAKI-1
HCT-116 = system: HCT-116
RXF 393 = system: RXF 393
A498 = system: A498
SF-295 = system: SF-295
NCI-H23 = system: NCI-H23
OVCAR-8 = system: OVCAR-8
HT-29 = system: HT-29
MDA-N = system: MDA-N
M14 = system: M14
PC-3 = system: PC-3
SNB-19 = system: SNB-19
HOP-92 = system: HOP-92
HCT-15 = system: HCT-15
A549 = system: A549
SK-OV-3 = system: SK-OV-3
SR = system: SR
NCI-H460 = system: NCI-H460
SF-268 = system: SF-268
HL-60 = system: HL-60
MDA-MB-231 = system: MDA-MB-231
K562 = system: K562
CCRF-CEM = system: CCRF-CEM
Hs-578T = system: Hs-578T
EKVX = system: EKVX
OVCAR-4 = system: OVCAR-4
MDA-MB-435 = system: MDA-MB-435
HCC 2998 = system: HCC 2998
SK-MEL-28 = system: SK-MEL-28
SW-620 = system: SW-620
OVCAR-3 = system: OVCAR-3

Q: What does the source list for COCC#C[C@@]1(O)CCCCC1CC(OC)OC (some centres undefined)?
A: GI50 (NCI-H226): > 100 µM (inactive); GI50 (SNB-75): > 100 µM (inactive); GI50 (Malme-3M): 64.9 µM (inactive); GI50 (T47D): > 100 µM (inactive); GI50 (ACHN): > 100 µM (inactive); GI50 (TK-10): > 100 µM (inactive); GI50 (KM12): > 100 µM (inactive); GI50 (786-0): > 100 µM (inactive); GI50 (UO-31): > 100 µM (inactive); GI50 (HOP-62): > 100 µM (inactive); GI50 (SN12C): > 100 µM (inactive); GI50 (UACC-62): 34.9 µM (inactive); GI50 (LOX IMVI): 48 µM (inactive); GI50 (NCI-H522): 24.7 µM (inactive); GI50 (UACC-257): > 100 µM (inactive); GI50 (OVCAR-5): > 100 µM (inactive); GI50 (DU-145): > 100 µM (inactive); GI50 (SK-MEL-5): > 100 µM (inactive); GI50 (RPMI-8226): 32.4 µM (inactive); GI50 (U-251): > 100 µM (inactive); GI50 (IGROV-1): 48.1 µM (inactive); GI50 (COLO 205): > 100 µM (inactive); GI50 (NCI/ADR-RES): > 100 µM (inactive); GI50 (MOLT-4): 42.7 µM (inactive); GI50 (SK-MEL-2): > 100 µM (inactive); GI50 (MCF7): 60 µM (inactive); GI50 (CAKI-1): > 100 µM (inactive); GI50 (HCT-116): 81.8 µM (inactive); GI50 (RXF 393): > 100 µM (inactive); GI50 (A498): 38.4 µM (inactive); GI50 (SF-295): > 100 µM (inactive); GI50 (NCI-H23): > 100 µM (inactive); GI50 (OVCAR-8): 51.6 µM (inactive); GI50 (HT-29): > 100 µM (inactive); GI50 (MDA-N): > 100 µM (inactive); GI50 (M14): > 100 µM (inactive); GI50 (PC-3): > 100 µM (inactive); GI50 (SNB-19): > 100 µM (inactive); GI50 (HOP-92): 94.6 µM (inactive); GI50 (HCT-15): 76.2 µM; GI50 (A549): > 100 µM (inactive); GI50 (SK-OV-3): > 100 µM (inactive); GI50 (SR): 40.3 µM (inactive); GI50 (NCI-H460): > 100 µM (inactive); GI50 (SF-268): > 100 µM (inactive); GI50 (HL-60): 55.1 µM (inactive); GI50 (MDA-MB-231): > 100 µM (inactive); GI50 (K562): 49.7 µM (inactive); GI50 (CCRF-CEM): 38.5 µM (inactive); GI50 (Hs-578T): > 100 µM (inactive); GI50 (EKVX): > 100 µM (inactive); GI50 (OVCAR-4): 50.4 µM (inactive); GI50 (MDA-MB-435): 62.7 µM (inactive); GI50 (HCC 2998): > 100 µM (inactive); GI50 (SK-MEL-28): > 100 µM (inactive)

Q: For CC(C(=O)NCCNC(=O)CCC(=O)N(C)O)C(=O)NCCNC(=O)CCC(=O)N(C)O, which GI50 (NCI-H226) is on record?
A: Its GI50 is > 100 µM (inactive).

Q: And the GI50 (SNB-75)?
A: Its GI50 is > 100 µM (inactive).

Q: And the GI50 (Malme-3M)?
A: Its GI50 is > 100 µM (inactive).

Q: And the GI50 (T47D)?
A: Its GI50 is > 100 µM (inactive).

Q: And the GI50 (ACHN)?
A: The GI50 was > 100 µM (inactive).

Q: And the GI50 (TK-10)?
A: The GI50 was > 100 µM (inactive).

Q: And the GI50 (KM12)?
A: Its GI50 is > 100 µM (inactive).

Q: And the GI50 (UO-31)?
A: Its GI50 is > 100 µM (inactive).

Q: What about the GI50 (HOP-62) of the same molecule?
A: Its GI50 is > 100 µM (inactive).

Q: What about the GI50 (UACC-62) of the same molecule?
A: The GI50 was > 100 µM (inactive).

Q: And the GI50 (LOX IMVI)?
A: Its GI50 is > 100 µM (inactive).

Q: What about the GI50 (NCI-H522) of the same molecule?
A: The GI50 was > 100 µM (inactive).

Q: And the GI50 (UACC-257)?
A: Its GI50 is > 100 µM (inactive).

Q: What about the GI50 (OVCAR-5) of the same molecule?
A: The GI50 was > 100 µM (inactive).

Q: What about the GI50 (DU-145) of the same molecule?
A: Its GI50 is > 100 µM (inactive).

Q: And the GI50 (SK-MEL-5)?
A: Its GI50 is 97.9 µM (inactive).

Q: And the GI50 (RPMI-8226)?
A: The GI50 was > 100 µM (inactive).

Q: What about the GI50 (U-251) of the same molecule?
A: The GI50 was > 100 µM (inactive).

Q: And the GI50 (IGROV-1)?
A: Its GI50 is > 100 µM (inactive).

Q: And the GI50 (COLO 205)?
A: The GI50 was > 100 µM (inactive).

Q: What about the GI50 (NCI/ADR-RES) of the same molecule?
A: The GI50 was > 100 µM (inactive).

Q: And the GI50 (MOLT-4)?
A: The GI50 was > 100 µM (inactive).

Q: What about the GI50 (SK-MEL-2) of the same molecule?
A: Its GI50 is > 100 µM (inactive).

Q: And the GI50 (MCF7)?
A: Its GI50 is > 100 µM (inactive).

Q: What about the GI50 (CAKI-1) of the same molecule?
A: The GI50 was > 100 µM (inactive).

Q: What about the GI50 (RXF 393) of the same molecule?
A: The GI50 was > 100 µM (inactive).

Q: And the GI50 (A498)?
A: The GI50 was > 100 µM (inactive).

Q: And the GI50 (SF-295)?
A: Its GI50 is > 100 µM (inactive).

Q: What about the GI50 (NCI-H23) of the same molecule?
A: The GI50 was > 100 µM (inactive).

Q: And the GI50 (OVCAR-8)?
A: Its GI50 is > 100 µM (inactive).

Q: What about the GI50 (HT-29) of the same molecule?
A: Its GI50 is > 100 µM (inactive).

Q: And the GI50 (MDA-N)?
A: Its GI50 is > 100 µM (inactive).

Q: What about the GI50 (M14) of the same molecule?
A: The GI50 was > 100 µM (inactive).

Q: What about the GI50 (PC-3) of the same molecule?
A: Its GI50 is > 100 µM (inactive).

Q: What about the GI50 (SNB-19) of the same molecule?
A: Its GI50 is > 100 µM (inactive).

Q: What about the GI50 (HOP-92) of the same molecule?
A: The GI50 was > 100 µM (inactive).

Q: And the GI50 (HCT-15)?
A: The GI50 was over 100 µM.

Q: What about the GI50 (A549) of the same molecule?
A: Its GI50 is > 100 µM (inactive).

Q: What about the GI50 (SK-OV-3) of the same molecule?
A: Its GI50 is > 100 µM (inactive).

Q: And the GI50 (SR)?
A: The GI50 was > 100 µM (inactive).

Q: And the GI50 (NCI-H460)?
A: Its GI50 is > 100 µM (inactive).

Q: What about the GI50 (SW-620) of the same molecule?
A: The GI50 was > 100 µM (inactive).

Q: And the GI50 (SF-268)?
A: The GI50 was > 100 µM (inactive).

Q: What about the GI50 (OVCAR-3) of the same molecule?
A: The GI50 was > 100 µM (inactive).

Q: And the GI50 (HL-60)?
A: The GI50 was > 100 µM (inactive).

Q: And the GI50 (MDA-MB-231)?
A: Its GI50 is > 100 µM (inactive).

Q: And the GI50 (K562)?
A: The GI50 was > 100 µM (inactive).

Q: And the GI50 (CCRF-CEM)?
A: The GI50 was > 100 µM (inactive).

Q: What about the GI50 (Hs-578T) of the same molecule?
A: The GI50 was > 100 µM (inactive).

Q: What about the GI50 (EKVX) of the same molecule?
A: The GI50 was > 100 µM (inactive).

Q: What about the GI50 (OVCAR-4) of the same molecule?
A: Its GI50 is > 100 µM (inactive).

Q: And the GI50 (MDA-MB-435)?
A: Its GI50 is > 100 µM (inactive).

Q: And the GI50 (HCC 2998)?
A: Its GI50 is > 100 µM (inactive).

Q: And the GI50 (SK-MEL-28)?
A: Its GI50 is 5.71 µM (inactive).
